In patent US6066642A, “Dihydropyridine-, pyridine-, benzopyran-4-one- and triazoloquinazoline derivative, their preparation and their use as adenosine receptor antagonists” (priority 1998, dated 2000):
Like-named read-outs stand apart in the source and are kept apart here.

Assays:
[1] = biological target: T1, A1 receptors (Rattus norvegicus, UniProt P25099); assay: biochemical; assay type: binding; conditions: for inhibition at 100 µM: 10^-4 M; for Ki: rat brain membranes, read-out: Ki rA1; for greater affinity to A1 than A2a adenosine receptors: selectivity in words
T1 sequence (P25099 1-326): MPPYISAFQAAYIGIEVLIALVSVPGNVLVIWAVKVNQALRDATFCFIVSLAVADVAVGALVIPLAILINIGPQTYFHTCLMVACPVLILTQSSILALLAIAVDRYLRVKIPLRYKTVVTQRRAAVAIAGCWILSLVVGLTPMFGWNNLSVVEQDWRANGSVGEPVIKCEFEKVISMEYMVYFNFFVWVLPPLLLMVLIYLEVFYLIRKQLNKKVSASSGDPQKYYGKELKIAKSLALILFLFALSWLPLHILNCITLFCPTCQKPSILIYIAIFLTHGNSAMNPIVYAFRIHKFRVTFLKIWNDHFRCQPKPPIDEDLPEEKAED
Description: ^a Displacement of specific [^3 H] PIA binding in rat brain
percentage of specific binding displaced at 100 μM.

[2] = biological target: T2, A2a receptors (Rattus norvegicus, UniProt P30543); assay: radioligand binding, displacement of specific [3H]CGS 21680 binding in rat striatal membranes; conditions: for inhibition at 100 µM: 10^-4 M; for Ki: [3H]CGS 21680, rat striatal membranes
T2 construct: Displacement of specific [^3 H]; from tissue; host or cells: rat striatal membranes
T2 sequence (P30543 whole entry): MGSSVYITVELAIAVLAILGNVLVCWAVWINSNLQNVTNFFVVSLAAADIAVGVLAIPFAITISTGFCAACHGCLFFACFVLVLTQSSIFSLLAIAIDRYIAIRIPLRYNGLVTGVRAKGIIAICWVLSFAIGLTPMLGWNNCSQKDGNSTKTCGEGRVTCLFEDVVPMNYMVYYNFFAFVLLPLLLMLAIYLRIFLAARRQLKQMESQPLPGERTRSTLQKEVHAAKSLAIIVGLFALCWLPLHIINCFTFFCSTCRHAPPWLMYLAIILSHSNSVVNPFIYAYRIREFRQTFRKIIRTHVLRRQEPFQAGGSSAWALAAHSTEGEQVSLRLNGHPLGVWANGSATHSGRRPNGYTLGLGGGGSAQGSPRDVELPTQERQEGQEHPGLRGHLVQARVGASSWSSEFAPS
Description: ^b Displacement of specific [^3 H]
or as a percentage of specific binding displaced at 100 μM.

[3] = Table 12, read-out: displacement of specific binding rA1
[4] = Table 12, read-out: % inhibition rA2A
[5] = Table 12, read-out: % inhibition rA1
[6] = Table 12, read-out: displacement of specific binding rA2A
[7] = Table 11, read-out: displacement of specific binding rA1
[8] = Table 11, read-out: % inhibition rA1
[9] = Table 11, read-out: displacement of specific binding rA2A

## CCOC(=O)C1=C(C)N(COC)C(c2ccccc2)=C(C(=O)OCC[Si](C)(C)C)C1C#Cc1ccccc1 (racemic) [Compound 137, 1-Methoxymethyl 3-ethyl 5-(2-trimethylsilyl)-ethyl 2-methyl-4-phenylethynyl-6-phenyl-1,4-(±)-dihydropyridine-3,5-dicarboxylate]
[1]; [3]
  inhibition at 100 µM: < 10%
[2]; [4]
  inhibition at 100 µM: 27 ± 4%

## O=c1c(O)c(-c2ccc(O)cc2O)oc2cc(O)cc(O)c12 [Compound 5a, 2',3,4',5,7-pentahydroxyflavone, reference compound]
[1]; Table 3, [3H]PIA
  Ki: 13.8 µM
[2]; Table 3, read-out: Ki rA2a
  Ki: 17.3 µM

## CCOC(=O)C1=C(C)NC(c2ccccc2)=C(C(=O)OCc2ccc(C)cc2)C1C#Cc1ccccc1 (racemic) [Compound 122c]
[1]; [3]
  inhibition at 100 µM: < 10%
[2]; [4]
  inhibition at 100 µM: 17 ± 3%

## CCOC(=O)C1=C(C)NC(c2ccccc2)=C(C(=O)OCc2ccc(C(F)(F)F)cc2)C1C#Cc1ccccc1 (racemic) [Compound 122d]
[1]; [5]
  inhibition at 100 µM: 32 ± 3%
[2]; [4]
  inhibition at 100 µM: 15%

## CCOC(=O)C1=C(C)NC(c2ccccc2)=C(C(=O)OCc2ccccc2)C1C#Cc1ccccc1 (stereo not drawn) [Compound 121]
[1]; [5]
  inhibition at 100 µM: 25 ± 4%

## CCOC(=O)C1=C(C)NC(c2ccccc2)=C(C(=O)OCCCc2ccccc2)C1C#Cc1ccccc1 (racemic) [Compound 126, 3-Ethyl 5-phenylpropyl 2-methyl-4-phenylethynyl-6-phenyl-1,4-(±)-dihydropyridine-3,5-dicarboxylate]
[1]; [3]
  inhibition at 100 µM: < 10%
[2]; [6]
  inhibition at 100 µM: < 10%

## CCOCN1C(C)=C(C(=O)OCC)C(C#Cc2ccccc2)C(C(=O)OCC[Si](C)(C)C)=C1c1ccccc1 (racemic) [Compound 138, 1-Ethoxymethyl 3-ethyl 5-(2-trimethylsilyl)-ethyl 2-methyl-4-phenylethynyl-6-phenyl-1,4-(±)-dihydropyridine-3,5-dicarboxylate]
[1]; [5]
  inhibition at 100 µM: 13 ± 3%
[2]; [4]
  inhibition at 100 µM: 19%

## CCOC(=O)C1=C(C)NC(c2ccccc2)=C(C(=O)OCc2ccccc2C)C1C#Cc1ccccc1 (racemic) [Compound 122a]
[1]; [5]
  inhibition at 100 µM: 16 ± 1%
[2]; [4]
  inhibition at 100 µM: 13%

## COC(=O)C1=C(C)NC(C)=C([N+](=O)[O-])C1c1ccccc1C(F)(F)F (stereo not drawn) [Compound 70, reference compound]
[1]
  greater affinity to A1 than A2a adenosine receptors: greater affinity to A1 adenosine receptors than A2a receptors

## CCOC(=O)C1=C(C)NC(c2ccccc2)=C(C(=O)OCCc2ccccc2)C1C#Cc1ccccc1 (racemic) [Compound 125, 3-Ethyl 5-phenylethyl 2-methyl-4-phenylethynyl-6-phenyl-1,4-(±)-dihydropyridine-3.5-dicarboxylate]
[1]; [3]
  inhibition at 100 µM: < 10%
[2]; [6]
  inhibition at 100 µM: < 10%

## O=C1CC(c2ccccc2O)Oc2ccccc21 (stereo not drawn) [Compound 13, reference compound]
[1]; Table 4, [3H]PIA
  Ki: 2.64 ± 0.56 µM
[2]; Table 4, read-out: Ki rA2a
  Ki: 17.6 ± 2.1 µM

## CCOC(=O)C1=C(C)NC(c2ccccc2)=C(C(=O)OCc2ccc([N+](=O)[O-])cc2)C1C#Cc1ccccc1 (racemic) [Compound 122g]
[1]; [5]
  inhibition at 100 µM: 29 ± 2%

## COc1cc(OC)c2c(=O)c(OC)c(-c3ccccc3)oc2c1 [Compound 2, 3,5,7-Trimethoxyflavone]
[1]; Table 3, [3H]PIA
  Ki: 0.509 ± 0.049 µM
[2]; Table 3, read-out: Ki rA2a
  Ki: 6.45 ± 1.48 µM

## CCOC(=O)C1=C(c2ccccc2)NC(C)=C(C(=O)OCc2ccccc2)C1/C=C/c1ccccc1 (stereo not drawn) [Compound 105]
[1]; [7]
  inhibition at 100 µM: < 10%
[2]; Table 11, read-out: % inhibition rA2A
  inhibition at 100 µM: 16 ± 11%

## CCOC(=O)C1=C(C)NC(c2ccccc2)=C(C(=O)OCc2cccc(C)c2)C1C#Cc1ccccc1 (racemic) [Compound 122b, 3-Ethyl 5-(3-methylbenzyl)-4-phenylethynyl-6-phenyl-1,4(±)-dihydropyridine-3.5-dicarboxylate]
[1]; [3]
  inhibition at 100 µM: < 10%
[2]; [4]
  inhibition at 100 µM: 16 ± 2%

## CCOC(=O)C1=C(C)NC(c2ccccc2)=C(C(=O)OC(C)(C)C)C1C#Cc1ccccc1 (racemic) [Compound 127, 3-Ethyl 5-t-butyl 2-methyl-4-phenylethynyl-6-phenyl-1,4-(±)-dihydropyridine-3.5-dicarboxylate]
[1]; Table 12, [3H]R-PIA
  Ki: 25.3 µM
[2]; [4]
  inhibition at 100 µM: 27 ± 5%

## CCOC(=O)C1=C(c2ccccc2)NC(C)=C(C(=O)OCc2ccccc2)C1C#Cc1ccccc1 (stereo not drawn) [Compound 107]
[1]; [8]
  inhibition at 100 µM: 24 ± 4%
[2]; [9]
  inhibition at 100 µM: < 10%

## CCOC(=O)C1=C(C)NC(c2ccccc2)=C(C(=O)OCc2ccccc2)C1/C=C/c1ccc([N+](=O)[O-])cc1 (stereo not drawn) [Compound 100]
[1]; [8]
  inhibition at 100 µM: 33%
[2]; [9]
  inhibition at 100 µM: < 10%

## CCOC(=O)C1=C(C)NC(C)=C(C(=O)OC)C1c1ccc([N+](=O)[O-])cc1 (racemic) [Compound 67, 3-methyl-5-ethyl-2,6-dimethyl-4-(4-nitrophenyl)-1,4(R,S)-dihydropyridine-3,5-dicarboxylate]
[1]; Table 9, read-out: % of specific binding displaced rA1
  inhibition at 100 µM: 37 ± 14%
[2]; Table 9, read-out: Ki rA2A
  Ki: 35.6 µM

## CC(C)(C)OC(=O)Nc1nc2ccc(Cl)cc2c2nc(-c3ccco3)nn12 [Compound 150, 5-[(tert.-Butoxycarbonyl)amino]-9-chloro-2-(2-furyl)[1,2,4]triazolo[1,5-c]quinazoline]
[1]; Table 15, [3H]PIA
  Ki: 0.19 ± 0.016 µM
[2]; Table 15, read-out: Ki rA2A
  Ki: 0.092 ± 0.008 µM

## CCOC(=O)C1=C(C)NC(c2ccccc2)=C(C(=O)OCc2cccc(I)c2)C1C#Cc1ccccc1 (stereo not drawn) [Compound 122e]
[1]; [5]
  inhibition at 100 µM: 14%
[2]; [4]
  inhibition at 100 µM: 19 ± 7%

## COc1c2ccoc2cc2oc(C)cc(=O)c12 [Compound 17, 4-methoxy-7-methyl-5H-furo[3,2-g][1]-benzopyrano-5-one, reference compound]
[1]; Table 5, read-out: % of specific binding displaced rA1
  inhibition at 100 µM: 36 ± 3%
[2]; Table 5, read-out: Ki rA2a
  Ki: 42.4 ± 11.9 µM

## CCOC(=O)C1=C(C)NC(c2ccccc2)=C(C(=O)OCC)C1C#Cc1cccc(C)c1 (racemic) [Compound 120, 3,5-Diethyl 2-methyl-4-(3-methylphenylethynyl)-6-phenyl-1,4-(±)-dihydropyridine-3,5-dicarboxylate]
[1]; [5]
  inhibition at 100 µM: 41%
[2]; [6]
  inhibition at 100 µM: < 10%

## CCOC(=O)C1=C(c2ccccc2)NC(C)=C(C(=O)OCC2COC(C)(C)O2)C1C#Cc1ccccc1 (stereo not drawn) [Compound 209a]
[1]; Table 14, read-out: % inhibition rA1
  inhibition at 100 µM: 32 ± 4%
[2]; Table 14, read-out: displacement of specific binding rA2A
  inhibition at 100 µM: < 10%

## CCOC(=O)C1=C(c2ccccc2)NC(C)=C(C(=O)OCc2ccccc2)C1/C=C/c1ccc([N+](=O)[O-])cc1 (stereo not drawn) [Compound 106]
[1]; [7]
  inhibition at 100 µM: < 10%
[2]; [9]
  inhibition at 100 µM: < 10%

## CCCOC(=O)C1=C(C)NC(c2ccccc2)=C(C(=O)OCc2ccccc2)C1C#Cc1ccccc1 (racemic) [Compound 124, 3-Propyl 5-benzyl 2-methyl-4-phenylethynyl-6-phenyl-1,4-(±)-dihydropyridine-3,5-dicarboxylate]
[1]; [5]
  inhibition at 100 µM: 27 ± 7%
[2]; [4]
  inhibition at 100 µM: 16%

## CCCn1c(=O)n2nc(-c3ccco3)nc2c2cc(Cl)ccc21 [Compound 159, 9-Chloro-2-(2-furyl)[1,2,4]triazolo[1,5-c]quinazolin-6-propyl-5-one]
[1]; Table 15, [3H]PIA
  Ki: 2 µM

## O=C1CC(c2ccccc2)Oc2ccccc21 (stereo not drawn) [Compound 12, flavanone, reference compound]
[1]; Table 4, [3H]PIA
  Ki: 32 ± 4.8 µM

## COC(=O)C1=C(C)NC(C)=C([N+](=O)[O-])C1c1ccccc1C(F)(F)F (stereo not drawn) [Compound 69, reference compound]
[1]
  greater affinity to A1 than A2a adenosine receptors: greater affinity to A1 adenosine receptors than A2a receptors

## CCOC(=O)C1=C(C)NC(C)=C(C(=O)OC)C1c1ccc(O)c(OC)c1 (racemic) [Compound 72, 3-methyl-5-ethyl-2,6-dimethyl-4-(4-hydroxy,3-methoxyphenyl)-1,4(R,S)-dihydropyridine-3,5-dicarboxylate]
[2]; Table 9, read-out: Ki rA2A
  Ki: 56.8 ± 1.9 µM

## CCOC(=O)C1=C(C)NC(C)=C(C(=O)OCC)C1/C=C/c1ccccc1 [Compound 84]
[2]; Table 11, read-out: Ki rA2A
  Ki: 9.23 ± 3.6 µM
